The test system of the assay is NIH-OVCAR3 human ovarian tumor cells. Nature of the assay: Efficacy in OVCAR3 xenograft model (tumor volume). The format is in vivo, female CB.17 SCID mice. To be noted: dosed for 42 days. From the text: OVCAR3: NIH-OVCAR3 human ovarian tumor cells (15×10^6/mouse) were implanted subcutaneously in female CB.17 SCID mice. The mice were randomized into groups of eight for efficacy, based on tumor volume and treated with either vehicle (0.5% HPMC/0.1% Tween 80), AZD5153; olaparib or the combination of AZD5153 and olaparib approximately 10 days after implantation. AZD5153 was formulated in 0.5% HPMC/0.1% Tween 80 and dosed orally for 42 days. Olaparib was formulated in 50% of 30% w/v HP-β-CD (Kleptose) in purified water and also dosed for 42 days. For the combination groups, olaparib was dosed daily for 42 days and AZD5153 was dosed either daily, for 7 days on and 14 days off for 2 cycles or 14 days on and 7 days off for 2 cycles. Tumor length and width was measured by caliper and tumor volume was calculated using the formula (length×width^2)*π/6 then reported as tumor volume.

Two molecules from patent US20230038138A1, “COMBINATION THERAPY FOR TREATING CANCER” (ASTRAZENECA AB, priority 2020, published 2023) can be followed below.

As for `COc1nnc2ccc(N3CCC(c4ccc(OCCN5CCN(C)C(=O)[C@H]5C)cc4)CC3)nn12` [AZD5153, (3R)-4-[2-[4-[1-(3-Methoxy-[1,2,4]triazolo[4,3-b]pyridazin-6-yl)-4-piperidyl]phenoxy]ethyl]-1,3-dimethyl-piperazin-2-one], the “efficacy (tumor volume) as monotherapy” value is listed as “modestly efficacious”.

`O=C(c1cc(Cc2n[nH]c(=O)c3ccccc23)ccc1F)N1CCN(C(=O)C2CC2)CC1` [olaparib, 4-[(3-{[4-(cyclopropylcarbonyl)piperazin-1-yl]carbonyl}-4-fluorophenyl)methyl]phthalazin-1(2H)-one]: the “efficacy (tumor volume) as monotherapy” value is on record as “modestly efficacious”.
